Counter-ions that a name gives are not always drawn. Non-standard residues stand in square brackets, D forms with d. Residues, ends and D or L forms follow the SMILES beside them. Phe(4-Cl) = N[C@@H](Cc1ccc(Cl)cc1)C(=O)O; dPhe(4-Cl) = N[C@H](Cc1ccc(Cl)cc1)C(=O)O; d2Nal = N[C@H](Cc1ccc2ccccc2c1)C(=O)O; d(hCit) = NC(=O)NCCCC[C@@H](N)C(=O)O; Lys(iPr) = CC(C)NCCCC[C@H](N)C(=O)O; d3Pal = N[C@H](Cc1cccnc1)C(=O)O
Tests used:
[1] = compared with degarelix; cited from earlier work
[2] = Phase I study D-84812-Z012, single s.c. injection: pharmacokinetics of teverelix; format: in vivo, human; conditions: between the 60 mg and 90 mg doses
[3] = Phase I study D-84812-Z012, single s.c. injection: safety and tolerability; format: in vivo, human; conditions: doses of up to 90 mg, 32 healthy male volunteers
[4] = Phase I study EP-24332T-A004, repeated s.c. injections: safety and tolerability; format: in vivo, human; conditions: 2 s.c. doses of 60 mg or 90 mg at 24 h or 48 h interval
Protocol: In a second Phase I study (EP-24332T-A004), a second injection was administered 24 h or 48 h after the first in order to increase and prolong the initial peak, as well as increase the teverelix level and consequently the number of subjects castrated. As the previous Phase I study had shown 10 mg and 30 mg to be insufficient to provide a long-term suppression, 2 doses of 60 mg or 90 mg (6 subjects per group) or placebo (4 subjects) were administered at a 24 h interval and 2 doses of 90 mg at a 48 h interval. […] No critical safety findings were reported. […] The protocol of the study included 6 subjects who received 90 mg Teverelix TFA on D1; D2; D3.

Row | Structure (SMILES) | local irritation at the administration site [1] | dose proportionality [2] | tolerability [3] | local reactions at the injection sites [4] | tolerability [4]
1 | CC(=O)N[C@H](Cc1ccc2ccccc2c1)C(=O)N[C@H](Cc1ccc(Cl)cc1)C(=O)N[C@H](Cc1cccnc1)C(=O)N[C@@H](CO)C(=O)N[C@@H](Cc1ccc(O)cc1)C(=O)N[C@H](CCCCNC(N)=O)C(=O)N[C@@H](CC(C)C)C(=O)N[C@@H](CCCCNC(C)C)C(=O)N1CCC[C@H]1C(=O)N[C@H](C)C(N)=O [Teverelix TFA, teverelix trifluoroacetate] (Ac-[d2Nal][dPhe(4-Cl)][d3Pal]SY[d(hCit)]L[Lys(iPr)]P[dA]-NH2) | less local irritation at the administration site than degarelix | demonstrated | tolerated well | – | –
2 | CC(=O)N[C@H](Cc1ccc2ccccc2c1)C(=O)N[C@@H](Cc1ccc(Cl)cc1)C(=O)N[C@H](Cc1cccnc1)C(=O)N[C@@H](CO)C(=O)N[C@H](Cc1ccc(O)cc1)C(=O)N[C@H](CCCCNC(N)=O)C(=O)N[C@@H](CC(C)C)C(=O)N[C@@H](CCCCNC(C)C)C(=O)N1CCC[C@H]1C(=O)N[C@H](C)C(N)=O [teverelix, Ac-D-Nal-D-pClPhe-D-Pal-Ser-Tyr-D-Hci-Leu-Lys(iPr)-Pro-D-Ala-NH2] (Ac-[d2Nal][Phe(4-Cl)][d3Pal]S[dY][d(hCit)]L[Lys(iPr)]P[dA]-NH2) | – | – | – | only mild local indurations | tolerated well
